# Several values for one entry are separate records, joined by “and”; a condition that tells them apart may be missing. Equal entries are not always repeated. Non-standard residues stand in square brackets, D forms with d. Residues, ends and D or L forms follow the SMILES beside them. *: point of attachment. Dolaproine = CO[C@@H]([C@@H]1CCCN1)[C@@H](C)C(=O)O; Dil = CC[C@H](C)[C@H](NC)[C@@H](CC(=O)O)OC; X1 = C[C@@H](N*)[C@@H](O)c1ccccc1; NMeV = CN[C@H](C(=O)O)C(C)C
# Legend:
# HT1080-FAP cells = experiment: Confocal fluorescence imaging of radiation-induced MeRho release in cells; format: cell-based, Human; conditions: 10 µM, hypoxic conditions, 30 minutes, no radiation
# Protocol: (§1) Typically, cells were seeded at a density of 2×10^5 cells/mL in 35-mm confocal dishes and cultured under hypoxic conditions in an incubator containing 5% CO2 at 37 °C for 24 hours. A stock solution of NAPC-MeRho (10 mM) was prepared in DMSO. Attached cells were washed twice with PBS before adding the fluorescence probe at a final concentration of 10 µM in 1 mL deoxygenated HBSS. After hypoxic incubation at 37 °C for 30 min, they were subjected to X-ray irradiation for […] (0, 4, 8, 16 Gy), and fluorescence images were taken with a laser scanning confocal microscope (Nikon, Japan). Excitation wavelength was 488 nm, fluorescence emission window was 500-530 nm. For imaging quantification, all cells on the image were set as regions of interest, and fluorescence intensity was measured using Nikon imaging software (version 4.0).
# (§2) Subsequent irradiation with 4, 8, and 16 Gy presented the appearance of green fluorescence from MeRho release (FIG. 16, right lanes), with fluorescence intensity positively correlated with radiation dose (FIG. 17).
# [1] = format: physicochemical
# Protocol: 20 µM NAPC-MeRho was mixed with an equal volume of 2 mM sodium ascorbate solution, incubated and detected at different time points using a fluorescence spectrometer and UPLC-MS. Stability test results in cysteine and γ-glutathione solutions were the same.
# (§3) The inventors performed proof-of-concept for a radiation-responsive fluorescent probe NAPC-MeRho (FIG. 13), designed for quantitative analysis of radiation-induced release. The NAPC linker selectively responds to e^-aq generated by X-rays, where C-O bond cleavage of the carbamate occurs, followed by decarboxylation to release fluorescent MeRho (FIG. 13). Under physiological conditions, irradiating 10 µM NAPC-MeRho with a gradient dose from 0 to 60 Gy caused fluorescence intensity to increase in a linear manner (FIG. 14 and FIG. 15), and UPLC spectra determined a G-value for MeRho release of 140 nM/Gy (FIG. 15). To test whether the radiation reduction reaction can occur in living cells without interference, stability to biological reducing agents and cytotoxicity to different cell lines were evaluated. […] VcNa at pH 7.4, and cell viability with 10 µM NAPC-MeRho was greater than 95%.
# 4T1-FAP tumors = experiment: Radiation activation of NAPC-MeRho in tumors, fluorescence of tumor sections; format: in vivo, BALB/c mice; conditions: 20 µL of 100 µM locally injected
# Protocol: Then, when examining the reduction of NAPC-MeRho in tumor-bearing mice, 20 µL of 100 µM NAPC-MeRho in PBS was locally injected into 4T1-FAP tumors, and X-ray therapy of 4 Gy was administered 30 minutes post-injection. Due to limited green light penetration, tumors were harvested and quickly frozen, and fluorescence intensity was quantified via confocal imaging. […] Furthermore, the MeRho signal was statistically greater than the non-irradiated group (FIG. 19), providing conclusive evidence that radiation reduction reactions are feasible in vivo.
# [2] = X-ray-induced MeRho release from NAPC-MeRho in PB (fluorescence, UPLC); format: physicochemical; conditions: 10 µM, gradient dose 0 to 60 Gy
# Protocol: As a representative example, the detailed procedure for X-ray-induced reduction of Compound 1 is described below. A stock solution of Compound 1 (10 mM in DMSO) was diluted in PB (0.02 M, pH 7.4) to a final concentration of 10 µM. Solutions were deoxygenated using the aforementioned deoxygenation step prior to X-ray irradiation from 0 to 60 Gy. Reaction mixtures were analyzed using UPLC and a fluorescence spectrometer, and amount of product release was quantified via standard curves.
# The elution program for Compounds 1-9 and NAPC-MeRho was Method a: H2O + 5% ACN (0 min)-95% H2O + 5% ACN (0.2 min)-5% H2O + 95% ACN (2.8 min)-5% H2O + 95% ACN (2.9 min)-95% H2O + 5% ACN (3.0 min)-95% H2O + 5% ACN (4.0 min). Injection volume: 10 µL.
# The inventors performed proof-of-concept for a radiation-responsive fluorescent probe NAPC-MeRho (FIG. 13), designed for quantitative analysis of radiation-induced release. […] Under physiological conditions, irradiating 10 µM NAPC-MeRho with a gradient dose from 0 to 60 Gy caused fluorescence intensity to increase in a linear manner (FIG. 14 and FIG. 15), and UPLC spectra determined a G-value for MeRho release of 140 nM/Gy (FIG. 15). To test whether the radiation reduction reaction can occur in living cells without interference, stability to biological reducing agents and cytotoxicity to different cell lines were evaluated. […]
# 4T1-FAP cells [3] = experiment: Confocal fluorescence imaging of radiation-induced MeRho release in cells; format: cell-based, Mouse; conditions: 10 µM
# Protocol: as §1, §2
# U87MG cells = experiment: as above; format: cell-based; conditions: 10 µM, hypoxic conditions, 30 minutes, no radiation
# Protocol: as §1, §2
# [4] = system: 4T1-FAP, HT1080-FAP and U87-MG cells; format: cell-based; conditions: 10 µM NAPC-MeRho, different cell lines
# Protocol: as §3
# Cell viability was assessed using CCK-8 assay. Each experiment was performed in triplicate. […] Incubated at 37 °C, 5% CO2 for 2 hours, absorbance was measured at 450 nm. The absorbance of treated cells was compared to that of the control group, whose viability was set at 100%.
# 4T1-FAP cells [5] = experiment: CCK-8 cell viability assay (cytotoxicity of MMAE and NAPC-ADC); format: cell-based, Mouse; conditions: 72 hour incubation
# Protocol: Cell viability was assessed using CCK-8 assay. Each experiment was performed in triplicate. To detect cytotoxicity of MMAE and NAPC-ADC, 4T1-FAP cells were seeded at 5×10^4 /mL in 96-well plates in 200 µL rmi-1640 medium containing 10% FBS and 1% penicillin/streptomycin, incubated at 37 °C in a 5% CO2 incubator for 24 hours, then incubated with different concentrations of MMAE and NAPC-ADC for 72 hour, and blank medium containing CCK-8 at a final concentration of 0.5 mg/mL was added. Incubated at 37 °C, 5% CO2 for 2 hours, absorbance was measured at 450 nm. The absorbance of treated cells was compared to that of the control group, whose viability was set at 100%.
SMILES,spontaneous release of MeRho (HT1080-FAP cells),"stability to reducing agent VcNa ([1]; 10 µM, 100 eq. VcNa, pH 7.4)",stability in cysteine and γ-glutathione solutions ([1]; compared with result in sodium ascorbate solution),fluorescence signal in tumor sections (4T1-FAP tumors; 4 Gy X-ray 30 minutes post-injection),fluorescence signal in tumor sections (4T1-FAP tumors; NAPC-MeRho only),G-value for MeRho release [2] [nM/Gy],"spontaneous release of MeRho (4T1-FAP cells [3]; hypoxic conditions, 30 minutes, no radiation)",increase of fluorescence intensity (4T1-FAP cells [3]; 4 Gy radiation) [fold],increase of fluorescence intensity (4T1-FAP cells [3]; 8 Gy radiation) [fold],increase of fluorescence intensity (4T1-FAP cells [3]; 16 Gy radiation) [fold],spontaneous release of MeRho (U87MG cells),cell viability [4],IC50 (4T1-FAP cells [5])
COc1ccc2c(c1)Oc1cc(NC(=O)OCc3cc[n+](C)cc3)ccc1C21OC(=O)c2ccccc21 (stereo not shown) [NAPC-MeRho],no spontaneous release of MeRho,highly stable,the same,significantly increased,limited fluorescence signal,140,no spontaneous release of MeRho,14.4,27.9,54.5,no spontaneous release of MeRho,greater than 95%,
CC[C@H](C)[C@@H]([C@@H](CC(=O)N1CCC[C@H]1[C@H](OC)[C@@H](C)C(=O)N[C@H](C)[C@@H](O)c1ccccc1)OC)N(C)C(=O)[C@@H](NC(=O)[C@@H](NC)C(C)C)C(C)C [MMAE] (H-[NMeV]V[Dil][Dolaproine]-X1),,,,,,,,,,,,,< 1.69 nM and 1.69 nM
